Measurements reported in PubChem BioAssay (NCI).
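Following 48 hours of exposure in 96-well plates, responses at five concentrations were used to interpolate endpoints linearly. TGI: concentration producing complete growth inhibition.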

What was measured:
Experiment in all cases: DTP human tumour cell line panel, 48 h
[1] = test system: OVCAR-5 ovarian
[2] = test system: RXF 393 renal
[3] = test system: U251 CNS
[4] = test system: SF-268 CNS
[5] = test system: SW-620 colon
[6] = test system: SR leukemia
[7] = test system: NCI-H226 lung
[8] = test system: NCI-H460 lung
[9] = test system: NCI-H522 lung
[10] = test system: A549 NSCLC
[11] = test system: MALME-3M melanoma
[12] = test system: ACHN renal
[13] = test system: HL-60(TB) leukemia
[14] = test system: A498 renal
[15] = test system: NCI/ADR-RES ovarian

SMILES	TGI [1] [µM]	TGI [2] [µM]	TGI [3] [µM]	TGI [4] [µM]	TGI [5] [µM]	TGI [6] [µM]	TGI [7] [µM]	TGI [8] [µM]	TGI [9] [µM]	TGI [10] [µM]	TGI [11] [µM]	TGI [12] [µM]	TGI [13] [µM]	TGI [14] [µM]	TGI [15] [µM]
CCC12CCCN(Cc3ccccc3)C1c1c(n(C)c3ccccc13)C(C(=O)OC)C2 (configuration not stated)	> 239	> 239	> 239	> 239	> 239	> 239	> 239	> 239	127	> 239	> 239	> 239	> 239		
Nc1nc(SCc2ccc([N+](=O)[O-])cc2)nc2c1ncn2C1OC(CO)C(O)C1O (configuration not stated)	> 100	> 100	> 100	> 100	> 100	> 100	> 100	> 100	> 100	> 100	> 100	> 100	> 100	> 100	
CC(C)=CCC/C(=C/CC/C(=C\CCc1ccoc1)C(=O)O)C(=O)O	> 100	> 100	> 100	> 100	> 100		> 100		> 100	> 100	> 100	> 100	> 100	> 100	> 100
COC(=O)CC1NC(=O)[C@@H]1C(C)O (some centres not stated)		> 100	> 100	> 100	> 100	> 100	> 100	> 100		> 100	> 100	> 100	> 100	> 100	
Cc1nn(C(=O)Cc2ccccc2)c2c1C(c1ccc(O)cc1O)SC(N)=N2 (configuration not stated)				> 100	> 100	> 100	> 100	> 100	> 100	> 100	> 100	> 100	> 100	> 100	
CCCCCCCCCCCCCCCCOCC(CC(F)(F)P(=O)(OCC)OCC)OC(C)=O (configuration not stated)	34.7	38.5	13.7	27.5	29.7		28.7	26.3	31.2	24.7	25.7	27.3		25.8	32.4
Cc1ccc(N2C(=O)CS/C2=C(\C#N)c2nc3ccccc3[nH]2)cc1	> 100		> 100	> 100	> 100	> 100	> 100	> 100	> 100	> 100	> 100	> 100	> 100	> 100	
N#C/C(c1nc2ccccc2[nH]1)=c1\s/c(=C/c2ccc(Cl)cc2)c(=O)n1-c1ccccc1	> 100		> 100	> 100	> 100	> 100	> 100	> 100	> 100	> 100	> 100	> 100	> 100	> 100	
